The test system of data set [1] is PD1-ss+10aa/Gaussia Luciferase. The data set is described as follows: Dox-Induced PD1-ss-Gluc Assay. In kind it is cell-based. The following applies: 24 hr Dox induction, 293FRT/TO cells, read-out: 24 hr Dox Inducible PD1ssGluc 293FRT/TO: Mean IC50. In a few lines: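 Doxycycline-induced expression of a PD1-ss+10aa/Gaussia luciferase reporter is measured in stable Flp-In 293 T-REx cells. Compound dilutions containing doxycycline are added one day after plating and incubated at 37 °C, 5% CO2. Values for unassigned stereocentres refer to stereoisomer mixtures.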

For data set [2], the system named is TNFα-FL/Gaussia Luciferase. The data set is described as follows: Dox Induced TNFα-FL-Gluc Assay. It is filed as cell-based. The following applies: for IC50: 24 hr Dox induction, 293FRT/TO cells, read-out: 24 hr Dox Inducible TNFaFLGluc 293FRT/TO: Mean IC50; for 24 hr Dox Inducible TNFaFLGluc 293FRT/TO: TNF/PD1: ratio of TNFaFLGluc IC50 to PD1ssGluc IC50. In a few lines: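 Flp-In 293 T-REx cells stably carrying doxycycline-inducible full-length TNFα (aa 1-233) fused to Gaussia luciferase. Plated the day before, then treated with compound dilutions in doxycycline-containing medium at 37° C, 5% CO2.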

Data set [3] has as its system HER3-ss+4aa/Gaussia Luciferase. The data set is described as follows: Dox-Induced Her3-ss-Gluc Assay. The following applies: 24 hr Dox induction, 293FRT/TO cells, read-out: 24 hr Dox Inducible Her3(ss + 4)Gluc 293FRT/TO: Mean IC50. In kind it is cell-based. The essentials:
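Stable Flp-In 293 T-REx cells carried a doxycycline-inducible HER3 signal sequence (+4 aa) fused to Gaussia luciferase. Cells were plated the day before the assay. Compound dilutions in DMSO/media containing doxycycline were then added, and plates were incubated at 37 °C, 5% CO2.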

In data set [4] the test system is IL-2-FL/Gaussia Luciferase. The data set is described as follows: Dox Induced IL2-FL-Gluc Assay. In kind it is cell-based. The settings on record: for IC50: 24 hr Dox induction, 293FRT/TO cells, read-out: 24 hr Dox Inducible IL2FLGluc 293FRT/TO: Mean IC50; for 24 hr Dox Inducible IL2FLGluc 293FRT/TO: IL2/PD1: ratio of IL2FLGluc IC50 to PD1ssGluc IC50. In a few lines: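 Stable Flp-In 293 T-REx cells carrying doxycycline-inducible full-length IL-2 (aa 1-153) fused to Gaussia luciferase, plated the day before assay. Compound dilutions added in medium containing doxycycline, incubated at 37 °C, 5% CO2. Undefined stereocentres mean data refer to stereoisomer mixtures.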

The test system of data set [5] is multiple myeloma cell line NCI-H929. The experiment in a line: H929 Cell Viability Assay. The following applies: Homo sapiens, NCI-H929, 48 h, NCI-H929 cells, Celltiter-Glo. It is filed as cell-based, human. In a few lines: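 NCI-H929 cells in RPMI 1640 with 10% FBS were treated with compound dilutions for 48 h at 37° C, 5% CO2. Viability was read by CellTiter-Glo luminescence. Undefined stereocentres denote stereoisomer mixtures.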
Background: In ATP-based viability assays light output follows the ATP content of the culture.

Data set [6] deals with multiple myeloma cell line U266B1. The data set is described as follows: U266 Cell Viability Assay. The settings on record: Homo sapiens, U-266, 48 h, U266B1 cells, Celltiter-Glo. It is filed as cell-based, human. In a few lines:
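U266B1 multiple myeloma cells in RPMI 1640/10% FBS were treated with compound dilutions for 48 h at 37 °C, 5% CO2. Viability was measured by CellTiter-Glo luminescence; compounds drawn without stereochemistry were tested as stereoisomer mixtures.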

Data set [7] is described as follows: Liver Microsome Stability Assay (rat). The settings on record: rat liver microsomes, with NADPH, 1.0 uM compound.
Description: (§1) Stability of a compound was assessed in the presence of liver microsomes from various sources—mouse, rat, monkey and human liver microsomes. 1.0 uM compound, 0.4% DMSO in 0.1 M Potassium Phosphate with 1.0 mg/mL liver microsomes, were incubated at 37° C. with or without 1 mM NADPH. The samples were quenched at 0, and 30 minutes.
A short description of data set [8]: Liver Microsome Stability Assay (mouse). The settings on record: mouse liver microsomes, with NADPH, 1.0 uM compound.
Description: as §1
Data set [9] is described as follows: Liver Microsome Stability Assay (human). The following applies: human liver microsomes, with NADPH, 1.0 uM compound. Background: Liver microsomes are vesicles of endoplasmic reticulum, rich in cytochrome P450 enzymes.
Description: as §1
A short description of data set [10]: Liver Microsome Stability Assay (monkey). The settings on record: monkey liver microsomes, with NADPH, 1.0 uM compound.
Description: as §1
[11] abbreviates: '<=>' given where both are I.A.

Read-outs that look alike come from different tables or passages of the source.

For orientation: EC50 means the concentration at which the effect is half-maximal. In the case of `COc1ccc(O[C@H]2CC[C@H](c3csc(NC(=O)c4cccn4Cc4ccncc4)n3)CC2)nc1` [Compound E34, N-(4-((1r,4r)-4-((5-methoxypyridin-2-yl)oxy)cyclohexyl)thiazol-2-yl)-1-(pyridin-4-ylmethyl)-1H-pyrrole-2-carboxamide], the IC50 in data set [1] (mean) came to 312 nM; in [2] (mean), 8140 nM; in data set [3] (mean) it was 648 nM; in data set [4] (mean), 2600 nM. The “24 hr Dox Inducible TNFaFLGluc 293FRT/TO: TNF/PD1” value in data set [2] (setting [11]) is 26.1. Also, in data set [4] (setting [11]), the “24 hr Dox Inducible IL2FLGluc 293FRT/TO: IL2/PD1” value was found to be 8.3. Moreover, the values for the EC50 in [5] and in data set [6] were 19600 nM and 7920 nM, respectively. Besides, the “Liver Microsome Stability (Multiple Species): Rat - % Remaining after 30 min w/NADPH” value in data set [7] was 0.26%. In [8], the “Liver Microsome Stability (Multiple Species): Mouse - % Remaining after 30 min w/NADPH” value came to 0.06%. Besides, the “Liver Microsome Stability (Multiple Species): Human - % Remaining after 30 min w/NADPH” value in data set [9] worked out at 0.19%. Further, in data set [10], the “Liver Microsome Stability (Multiple Species): Monkey - % Remaining after 30 min w/NADPH” value worked out at 3.44%.
`O=C(Nc1nc([C@H]2CCCN2c2ccc(OC3CS(=O)(=O)C3)cc2)cs1)c1cccn1Cc1ccnc(F)c1` [Compound A158]: the IC50 is 90.5 nM in [1], 1060 nM in data set [2], 128 nM in data set [3] and 130 nM in [4]. In addition, the “24 hr Dox Inducible TNFaFLGluc 293FRT/TO: TNF/PD1” value in data set [2] was determined as 11.7. Further, the “24 hr Dox Inducible IL2FLGluc 293FRT/TO: IL2/PD1” value in [4] was found to be 1.4. For the same compound, the EC50 in data set [5] is 3320 nM; in [6] it was > 25000 nM. The “Liver Microsome Stability (Multiple Species): Rat - % Remaining after 30 min w/NADPH” value in [7] came out at 24.2%. The “Liver Microsome Stability (Multiple Species): Mouse - % Remaining after 30 min w/NADPH” value in data set [8] worked out at 14.5%. The “Liver Microsome Stability (Multiple Species): Human - % Remaining after 30 min w/NADPH” value in data set [9] is reported as 8.23%. Besides, in data set [10], the “Liver Microsome Stability (Multiple Species): Monkey - % Remaining after 30 min w/NADPH” value came to 1.84%.
As for `CC(C)c1cc(/C=C/c2csc(NC(=O)c3cccn3Cc3ccnc(F)c3)n2)no1` [Compound B90, (E)-1-((2-fluoropyridin-4-yl)methyl)-N-(4-(2-(5-isopropylisoxazol-3-yl)vinyl)thiazol-2-yl)-1H-pyrrole-2-carboxamide], the IC50 in data set [1] is 167 nM; in data set [2] it was > 25000 nM; in [3] it was 690 nM; in data set [4], 1170 nM. Moreover, the “24 hr Dox Inducible TNFaFLGluc 293FRT/TO: TNF/PD1” value in data set [2] is >150. The “24 hr Dox Inducible IL2FLGluc 293FRT/TO: IL2/PD1” value in [4] is 7. The EC50 in data set [5] was 22800 nM; in data set [6] it was > 25000 nM. Moreover, in data set [7], the “Liver Microsome Stability (Multiple Species): Rat - % Remaining after 30 min w/NADPH” value is 5.78%. Moreover, the “Liver Microsome Stability (Multiple Species): Mouse - % Remaining after 30 min w/NADPH” value in data set [8] was 10.8%. In addition, in [9], the “Liver Microsome Stability (Multiple Species): Human - % Remaining after 30 min w/NADPH” value is 0.87%. Besides, in data set [10], the “Liver Microsome Stability (Multiple Species): Monkey - % Remaining after 30 min w/NADPH” value amounted to 0.54%.
With `NCCOc1ccc(N2CCC[C@@H]2c2csc(NC(=O)c3cccn3Cc3ccnc(F)c3)n2)cc1` [Compound A101, (R)-N-(4-(1-(4-(2-aminoethoxy)phenyl)pyrrolidin-2-yl)thiazol-2-yl)-1-((2-fluoropyridin-4-yl)methyl)-1H-pyrrole-2-carboxamide], the IC50 came out at 47.9 nM in [1], 379 nM in data set [2], 68.2 nM in data set [3] and 94.3 nM in [4]. Also, the “24 hr Dox Inducible TNFaFLGluc 293FRT/TO: TNF/PD1” value in data set [2] amounted to 7.92. Besides, in [4], the “24 hr Dox Inducible IL2FLGluc 293FRT/TO: IL2/PD1” value came out at 2. Moreover, the values for the EC50 in data set [5] and in data set [6] were 1270 nM and 12800 nM, respectively. Moreover, the “Liver Microsome Stability (Multiple Species): Rat - % Remaining after 30 min w/NADPH” value in [7] was found to be 76.5%. Besides, in data set [8], the “Liver Microsome Stability (Multiple Species): Mouse - % Remaining after 30 min w/NADPH” value came out at 62.7%. For the same compound, the “Liver Microsome Stability (Multiple Species): Human - % Remaining after 30 min w/NADPH” value in data set [9] is on record as 2.2%. In addition, the “Liver Microsome Stability (Multiple Species): Monkey - % Remaining after 30 min w/NADPH” value in data set [10] was determined as 14.5%.
For the compound `CC(C)Oc1ccc(N2CCC[C@@H]2c2csc(NC(=O)c3cccn3Cc3ccncc3)n2)cc1` [Compound A5, (R)-N-(4-(1-(4-isopropoxyphenyl)pyrrolidin-2-yl)thiazol-2-yl)-1-(pyridin-4-ylmethyl)-1H-pyrrole-2-carboxamide], the IC50 in data set [1] came out at 14.7 nM; in [2] it was 87 nM; in data set [3], 25.8 nM; in data set [4], 22.7 nM. Further, the “24 hr Dox Inducible TNFaFLGluc 293FRT/TO: TNF/PD1” value in data set [2] was 5.92. Also, the “24 hr Dox Inducible IL2FLGluc 293FRT/TO: IL2/PD1” value in data set [4] was determined as 1.5. Besides, the concentration giving a half-maximal response (EC50) in data set [5] was 448 nM; in [6] it was > 25000 nM. In [7], the “Liver Microsome Stability (Multiple Species): Rat - % Remaining after 30 min w/NADPH” value stood at 26.5%. Also, in [8], the “Liver Microsome Stability (Multiple Species): Mouse - % Remaining after 30 min w/NADPH” value worked out at 13%. In addition, the “Liver Microsome Stability (Multiple Species): Human - % Remaining after 30 min w/NADPH” value in [9] is listed as 10.4%. Further, in [10], the “Liver Microsome Stability (Multiple Species): Monkey - % Remaining after 30 min w/NADPH” value came out at 4.26%.
On to `O=C(Nc1nc([C@H]2CCCN2c2ccccc2)cs1)c1cccn1Cc1ccnc(Br)c1` [Compound E23, (R)-1-((2-bromopyridin-4-yl)methyl)-N-(4-(1-phenylpyrrolidin-2-yl)thiazol-2-yl)-1H-pyrrole-2-carboxamide], for which the IC50 in data set [1] (mean) is 338 nM; in data set [2] (mean), 11400 nM; in data set [3] (mean) it was 629 nM; in data set [4] (mean) it was 773 nM. Besides, the “24 hr Dox Inducible TNFaFLGluc 293FRT/TO: TNF/PD1” value in [2] (setting [11]) was found to be 33.8. Also, the “24 hr Dox Inducible IL2FLGluc 293FRT/TO: IL2/PD1” value in data set [4] (setting [11]) is reported as 2.3. Also, the EC50 in data set [5] was 18000 nM; in data set [6], > 25000 nM. For the same compound, in data set [7], the “Liver Microsome Stability (Multiple Species): Rat - % Remaining after 30 min w/NADPH” value was 4.14%. Further, the “Liver Microsome Stability (Multiple Species): Mouse - % Remaining after 30 min w/NADPH” value in data set [8] was 6.17%. The “Liver Microsome Stability (Multiple Species): Human - % Remaining after 30 min w/NADPH” value in [9] is recorded as 3%. Besides, the “Liver Microsome Stability (Multiple Species): Monkey - % Remaining after 30 min w/NADPH” value in data set [10] is reported as 2.07%.
Consider `CC(=O)Nc1ccc(N2CCC[C@@H]2c2csc(NC(=O)c3cc(C)cn3Cc3ccnc(F)c3)n2)cc1` [Compound A164, (R)-N-(4-(1-(4-acetamidophenyl)pyrrolidin-2-yl)thiazol-2-yl)-1-((2-fluoropyridin-4-yl)methyl)-4-methyl-1H-pyrrole-2-carboxamide], for which the IC50 came out at 7.95 nM in data set [1], 148 nM in data set [2], 17.3 nM in data set [3] and 19.1 nM in data set [4]. Also, the “24 hr Dox Inducible TNFaFLGluc 293FRT/TO: TNF/PD1” value in data set [2] is listed as 18.7. In addition, the “24 hr Dox Inducible IL2FLGluc 293FRT/TO: IL2/PD1” value in data set [4] is 2.4. In addition, the EC50 is 274 nM in data set [5] and > 25000 nM in [6]. Moreover, in [7], the “Liver Microsome Stability (Multiple Species): Rat - % Remaining after 30 min w/NADPH” value was determined as 19.4%. Moreover, the “Liver Microsome Stability (Multiple Species): Mouse - % Remaining after 30 min w/NADPH” value in [8] was 18.8%. The “Liver Microsome Stability (Multiple Species): Human - % Remaining after 30 min w/NADPH” value in [9] came out at 36.5%. The “Liver Microsome Stability (Multiple Species): Monkey - % Remaining after 30 min w/NADPH” value in data set [10] stood at 32.3%.

The record behind these values is patent publication US20230286973A1, “PROTEIN SECRETION INHIBITORS” (KEZAR LIFE SCIENCES, priority 2020, published 2023).
